This test addresses human APJ receptor (Homo sapiens (Human), UniProt P35414). The test is described as follows: Intracellular cAMP accumulation assay (APJ hcAMP, HTRF). The class given is cell-based. The following applies: HEK293 cells stably expressing human APJ receptor; inhibition of forskolin-mediated cAMP production; read-out: Human APJ cAMP EC50 Potency range. Summed up: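 HEK293 cells stably expressing human APJ, 5,000 per well, incubated 30 min at rt with compound, […] and 2 μM forskolin. cAMP measured by HTRF against a cAMP standard curve as inhibition of forskolin-driven production. EC50 from variable-slope sigmoidal fit.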
For orientation: Cyclic AMP is a second messenger, typically raised through Gs and lowered through Gi signalling.

Chain of human APJ receptor (P35414 whole entry): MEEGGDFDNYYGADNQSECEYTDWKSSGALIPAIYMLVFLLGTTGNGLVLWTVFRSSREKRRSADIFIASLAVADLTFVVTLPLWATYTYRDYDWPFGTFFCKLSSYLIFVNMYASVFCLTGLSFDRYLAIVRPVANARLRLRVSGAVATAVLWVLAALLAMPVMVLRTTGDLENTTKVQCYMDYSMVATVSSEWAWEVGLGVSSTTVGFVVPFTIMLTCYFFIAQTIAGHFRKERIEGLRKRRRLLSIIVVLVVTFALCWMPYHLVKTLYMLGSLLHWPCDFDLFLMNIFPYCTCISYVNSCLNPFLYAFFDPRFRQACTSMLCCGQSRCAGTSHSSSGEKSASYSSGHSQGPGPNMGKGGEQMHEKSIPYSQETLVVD

On to `CCCCc1nc(=O)c(S(=O)(=O)c2ccc(-c3ccc(F)nc3C)cc2)c(O)n1[C@H](c1cccc(C#N)c1)C1CC1` [Example 479, 3-[(S)-{2-butyl-5-[4-(6-fluoro-2-raethylpyridin-3-yl)benzenesulfonyl]-6-hydroxy-4-oxo-1,4-dihydropyrimidin-1-yl}(cyclopropyl)methyl] benzonitrile], for which the EC50 lay within 0.01 to 10 nM. As to `CCCCc1nc(=O)c(S(=O)(=O)c2ccc(-c3cccn(C)c3=O)cc2)c(O)n1[C@H](c1cccc(C#N)c1)C1CC1` [Example 480, 3-[(S)-{2-butyl-6-hydroxy-5-[4-(1-methyl-2-oxo-1,2-dihydropyridin-3-yl)benzenesulfonyl]-4-oxo-1,4-dihydropyrimidin-1-yl}(cyclopropyl)methyl] benzonitrile], the EC50 lay within 0.01 to 10 nM.

In the case of `CCCCc1nc(=O)c(S(=O)(=O)c2ccc(-c3ccccc3C(=O)OC)cn2)c(O)n1[C@@H](CC)c1cccc(C#N)c1` [Example 481, methyl 2-[6-({2-butyl-1-[(1S)-1-(3-cyanophenyl)propyl]-6-hydroxy-4-oxo-1,4-dihydropyrimidin-5-yl}sulfonyl)pyridin-3-yl]benzoate], the EC50 fell in the range of 0.01 to 10 nM. In the case of `CCCCc1nc(=O)c(S(=O)(=O)c2ccc(-c3ccccc3C)cn2)c(O)n1[C@@H](CC)c1cccc(C#N)c1` [Example 482, 3-[(1S)-1-(2-butyl-6-hydroxy-5-{[5-(2-methy!phenyl)pyridin-2-yl]sulfonyl}-4-oxo-1,4-dihydropyrimidin-1-yl)propyl]benzonitrile] it was 0.01 to 10 nM; in that of `C/C=C(/c1cccc(C#N)c1)n1c(CCCC)nc(=O)c(S(=O)(=O)c2ccc(-c3ccnc(F)c3C)cc2)c1O` [Example 483, 3-[(1Z)-1-{2-butyl-5-[4-(2-fluoro-3-methylpyridin-4-yl)benzenesulfonyl]-6-hydroxy-4-oxo-1,4-dihydropyrimidin-1-yl}prop-1-en-1-yl]benzonitrile], 0.01 to 10 nM; in that of `CCCCc1nc(=O)c(S(=O)(=O)c2ccc(-c3cccnc3C)cc2)c(O)n1[C@H](c1cccc(C#N)c1)C1CC1` [Example 484, 3-[(S)-{2-butyl-6-hydroxy-5-[4-(2-methyipyridin-3-yl)benzenesulfonyl]-4-oxo-1,4-dihydropyrimidin-1-yl}(cyclopropyl)methyl] benzonitrile], 0.01 to 10 nM. For `CCCCc1nc(=O)c(S(=O)(=O)c2ccc(-c3cccn(C)c3=O)cn2)c(O)n1[C@@H](CC)c1cccc(C#N)c1` [Example 485, 3-[(1S)-1-[2-butyl-6-hydroxy-5-({1′-methyl-2′-oxo-1′,2′-dihydro-[3,3′-bipyridine]-6-yl}sulfonyl)-4-oxo-1,4-dihydropyrimidin-1-yl]propyl]benzonitrile], the EC50 was 0.01 to 10 nM. `CC[C@@H](c1cccc(C#N)c1)n1c(CC2CC2)nc(=O)c(S(=O)(=O)c2ccc(-c3cccnc3C(N)=O)cc2)c1O` [Example 486, 3-[4-({1-[(1S)-1-(3-cyanophenyl)propyl]-2-(cyclopropylmethyl)-6-hydroxy-4-oxo-1,4-dihydropyrimidin-5-yl}sulfonyl)phenyl] pyridine-2-carboxamide]: the EC50 lay in the range of 0.01 to 10 nM. In the case of `CCCCc1nc(=O)c(S(=O)(=O)c2ccc(-c3ccncc3C)cc2)c(O)n1[C@H](c1cccc(C#N)c1)C1CC1` [Example 487, 3-[(S)-{2-butyl-6-hydroxy-5-[4-(3-methylpyridin-4-yl)benzenesulfonyl]-4-oxo-1,4-dihydropyrimidin-1-yl}(cyclopropyl)methyl] benzonitrile] it was 0.01 to 10 nM; in that of `CC[C@@H](c1cc(F)cc(C#N)c1)n1c(CC2CC2)nc(=O)c(S(=O)(=O)c2ccc(-c3ccnc(F)c3C)cc2)c1O` [Example 488, 3-[(1S)-1-[2-(cyclopropylmethyl)-5-[4-(2-fluoro-3-methylpyridin-4-yl)benzenesulfonyl]-6-hydroxy-4-oxo-1,4-dihydropyrimidin-1-yl]propyl]-5-fluorobenzonitrile], 0.01 to 10 nM; in that of `CCCCc1nc(=O)c(S(=O)(=O)c2ccc(-c3ccccc3C(=O)N3CCOCC3)cc2)c(O)n1[C@@H](CC)c1cccc(C#N)c1` [Example 489, 3-[(1S)-1-(2-butyl-6-hydroxy-5-{[2′-(morpholine-4-carbonyl)-[1,1′-biphenyl]-4-yl)sulfonyl}-4-oxo-1,4-dihydropyrimidin-1-yl)propyl]benzonitrile], 0.01 to 10 nM.

On to `Cn1cccc(-c2ccc(S(=O)(=O)c3c(O)n([C@H](c4cccc(C#N)c4)C4CC4)c(CC4CC4)nc3=O)cc2)c1=O` [Example 490, 3-[(S)-cyclopropyl[2-(cyclopropylmethyl)-6-hydroxy-5-[4-(1-methyl-2-oxo-1,2-dihydropyridin-3-yl)benzenesulfonyl]-4-oxo-1,4-dihydropyrimidin-1-yl]methyl]benzonitrile], for which the EC50 fell in the range of 0.01 to 10 nM. Regarding `CCCCc1nc(=O)c(S(=O)(=O)c2ccc(-c3ccccc3C)cc2)c(O)n1[C@@H](CC)c1cccc(C#N)c1` [Example 491, 3-[(1S)-1-[2-butyl-6-hydroxy-5-({2′-methyl-[1,1′-biphenyl]-4-yl}sulfonyl)-4-oxo-1,4-dihydropyrimidin-1-yl]propyl]benzonitrile], the EC50 was 0.01 to 10 nM. `CCCCc1nc(=O)c(S(=O)(=O)c2ccc(-c3cccc(C#N)c3C)cc2)c(O)n1[C@@H](CC)c1cccc(C#N)c1` [Example 492, 4′-({2-butyl-1-[(1S)-1-(3-cyanophenyl)propyl]-6-hydroxy-4-oxo-1,4-dihydropyrimidin-5-yl}sulfonyl)-2-methyl-[1,1′-biphenyl]-3-carbonitrile]: the EC50 lay within 0.01 to 10 nM. With `CCCCc1nc(=O)c(S(=O)(=O)c2ccc(-c3cc(C#N)ccc3C)cc2)c(O)n1[C@@H](CC)c1cccc(C#N)c1` [Example 493, 4′-({2-butyl-1-[(1S)-1-(3-cyanophenyl)propyl]-6-hydroxy-4-oxo-1,4-dihydropyrimidin-5-yl}sulfonyl)-6-methyl-[1,1′-biphenyl]-3-carbonitrile], the EC50 was 0.01 to 10 nM. As for `CCCCc1nc(=O)c(S(=O)(=O)c2ccc(-c3ccc(F)cc3C(N)=O)cc2)c(O)n1[C@@H](CC)c1cccc(C#N)c1` [Example 494, 4′-({2-butyl-1-[(1S)-1-(3-cyanophenyl)propyl]-6-hydroxy-4-oxo-1,4-dihydropyrimidin-5-yl}sulfonyl)-4-fluoro-[1,1′-biphenyl]-2-carboxamide], the figure is 0.01 to 10 nM; as for `CCCCc1nc(=O)c(S(=O)(=O)c2ccc(-c3c[nH]nc3C)cc2)c(O)n1[C@@H](CC)c1cccc(C#N)c1` [Example 495, 3-[(1S)-1-{2-butyl-6-hydroxy-5-[4-(3-methyl-1H-pyrazol-4-yl)benzenesulfonyl]-4-oxo-1,4-dihydropyrimidin-1-yl}propyl]benzonitrile], 0.01 to 10 nM; as for `Cc1cnccc1-c1ccc(S(=O)(=O)c2c(O)n([C@H](c3cccc(C#N)c3)C3CC3)c(CC3CC3)nc2=O)cc1` [Example 496, 3-[(S)-cyclopropyl[2-(cyclopropylmethyl)-6-hydroxy-5-[4-(3-methylpyridin-4-yl)benzenesulfonyl]-4-oxo-1,4-dihydropyrimidin-1-yl]methyl]benzonitrile], 0.01 to 10 nM. Turning to `Cc1ncccc1-c1ccc(S(=O)(=O)c2c(O)n([C@H](c3cccc(C#N)c3)C3CC3)c(CC3CC3)nc2=O)cc1` [Example 497, 3-[(S)-cyclopropyl[2-(cyclopropylmethyl)-6-hydroxy-5-[4-(2-methylpyridin-3-yl)benzenesulfonyl]-4-oxo-1,4-dihydropyrimidin-1-yl]methyl]benzonitrile], the EC50 was in the range of 0.01 to 10 nM. On to `Cc1c(-c2ccc(S(=O)(=O)c3c(O)n([C@H](c4cccc(C#N)c4)C4CC4)c(CC4CC4)nc3=O)cc2)ccnc1F` [Example 498, 3-[(S)-cyclopropyl[2-(cyclopropylmethyl)-5-[4-(2-fluoro-3-methylpyridin-4-yl)benzenesulfonyl]-6-hydroxy-4-oxo-1,4-dihydropyrimidin-1-yl]methyl]benzonitrile], for which the EC50 lay within 0.01 to 10 nM. With `Cc1nc(F)ccc1-c1ccc(S(=O)(=O)c2c(O)n([C@H](c3cccc(C#N)c3)C3CC3)c(CC3CC3)nc2=O)cc1` [Example 499, 3-[(S)-cyclopropyl[2-(cycIopropylmethyl)-5-[4-(6-fluoro-2-methylpyridin-3-yl)benzenesulfonyl]-6-hydroxy-4-oxo-1,4-dihydropyrimidin-1-yl]methyl]benzonitrile], the EC50 lay in the range of 0.01 to 10 nM. Take `N#Cc1cccc([C@H](C2CC2)n2c(CC3CC3)nc(=O)c(S(=O)(=O)c3ccc(-c4ccc(F)cc4C(N)=O)cc3)c2O)c1` [Example 500, 4′-({1-[(S)-(3-cyanophenyl)(cyclopropyl)methyl]-2-(cyclopropylmethyl)-6-hydroxy-4-oxo-1,4-dihydropyrimidin-5-yl}sulfonyl)-4-fluoro-[1,1′-biphenyl]-2-carboxamide]: the EC50 lay in the range of 0.01 to 10 nM. Take `CCCCc1nc(=O)c(S(=O)(=O)c2ccc(-c3ccccc3C(=O)OC)cc2)c(O)n1[C@@H](CC)c1cccc(C#N)c1` [Example 501, methyl 4′-({2-butyl-1-[(1S)-1-(3-cyanophenyl)propyl]-6-hydroxy-4-oxo-1,4-dihydropyrimidin-5-yl}sulfonyl)-[1,1′-biphenyl]-2-carboxylate]: the EC50 lay within 0.01 to 10 nM. In the case of `CC[C@@H](c1cc(F)cc(C#N)c1)n1c(CC2CC2)nc(=O)c(S(=O)(=O)c2ccc(-c3ccccc3C(N)=O)cc2)c1O` [Example 502, 4′-({1-[(1S)-1-(3-cyano-5-fluorophenyl)propyl]-2-(cyclopropylmethyl)-6-hydroxy-4-oxo-1,4-dihydropyrimidin-5-yl}sulfonyl)-[1,1′-biphenyl]-2-carboxamide] it was 0.01 to 10 nM.

Turning to `CCCCc1nc(=O)c(S(=O)(=O)c2ccc(-c3ccc(F)nc3F)cc2)c(O)n1[C@@H](CC)c1cccc(C#N)c1` [Example 503, 3-[(1S)-1-{2-butyl-5-[4-(2,6-difluoropyridin-3-yl)benzenesulfonyl]-6-hydroxy-4-oxo-1,4-dihydropyrimidin-1-yl}propyl]benzonitrile], the EC50 lay in the range of 0.01 to 10 nM.

Usually EC50 stands for the concentration that produces a half-maximal response.

The values are drawn from patent US10508104B2, “6-hydroxy-5-(phenyl/heteroarylsulfonyl)pyrimidin-4(1H)-one as APJ agonists” (Bristol-Myers Squibb Company, priority 2016, dated 2019).
